| melting point [°C] | SMILES |
| --- | --- |
| 111 to 113 | Cc1nc(NC(=O)c2cccc(S(C)(=O)=O)c2)sc1C(=O)NCc1ccccc1 [Example 2.35, 2-(3-Methanesulfonylbenzoylamino)-4-methylthiazole-5-carboxylic Acid Benzylamide] |
| 262 to 265 | Cc1nc(NC(=O)c2ccc(S(C)(=O)=O)cc2)sc1C(=O)NCc1ccccc1 [Example 2.38, 2-(4-Methanesulfonylbenzoylamino)-4-methylthiazole-5-carboxylic Acid Benzylamide] |
| 75 to 77 | COc1cccc(C(=O)Nc2nc(C)c(C(=O)NCc3ccccc3)s2)c1 [Example 2.34, 2-(3-Methoxybenzoylamino)-4-methylthiazole-5-carboxylic Acid Benzylamide] |
| 260 to 262 | Cc1nc(NC(=O)c2ccn(-c3ccccc3)c(=O)c2)sc1C(=O)NCc1ccccc1 [Example 15, N-Benzyl-4-methyl-2-(2-oxo-1-phenyl-1,2-dihydropyridine-4-carboxamido)thiazole-5-carboxamide] |
| 241 to 243 | Cc1nc(NC(=O)C2CC2)sc1C(=O)NCc1ccccc1 [Example 2.2, 2-(Cyclopropanecarbonylamino)-4-methylthiazole-5-carboxylic Acid Benzylamide] |
| 256 to 258 | Cc1nc(NC(=O)c2ccc(C#N)cc2)sc1C(=O)NCc1ccccc1 [Example 2.25, 2-(4-Cyanobenzoylamino)-4-methylthiazole-5-carboxylic Acid Benzylamide] |
| 216 to 217 | Cc1nc(NC(=O)c2ccccc2)sc1C(=O)NCc1cccc(F)c1 [Example 7.2, 2-Benzoylamino-4-methylthiazole-5-carboxylic Acid 3-Fluorobenzylamide] |
| 191 to 193 | Cc1nc(NC(=O)c2ccccc2)sc1C(=O)NCc1ccccc1Cl [Example 7.4, 2-Benzoylamino-4-methylthiazole-5-carboxylic acid 2-chlorobenzylamide] |
| 163 to 166 | Cc1nc(NC(=O)c2ccccc2)sc1C(=O)NCC1CC1 [Example 7, 2-Benzoylamino-4-methylthiazole-5-carboxylic Acid Cyclopropylmethylamide] |
| 168 to 170 | Cc1nc(NC(=O)c2ccc(OC(F)(F)F)cc2)sc1C(=O)NCc1ccccc1 [Example 2.32, 4-Methyl-2-(4-trifluoromethoxybenzoylamino)thiazole-5-carboxylic Acid Benzylamide] |
| 239 to 242 | Cc1nc(NC(=O)c2ccccc2S(C)(=O)=O)sc1C(=O)NCc1ccccc1 [Example 2.36, 2-(2-Methanesulfonylbenzoylamino)-4-methylthiazole-5-carboxylic Acid Benzylamide] |
| > 300 | Cc1nc(NC(=O)Nc2ccc(Cl)cc2)sc1C(=O)NCc1ccccc1 [Example 4.2, 2-[3-(4-Chlorophenyl)ureido]-4-methylthiazole-5-carboxylic Acid Benzylamide] |
| 195 to 196 | Cc1nc(NC(=O)c2cccc(C(F)(F)F)c2)sc1C(=O)NCc1ccccc1 [Example 2.22, 4-Methyl-2-(3-trifluoromethylbenzoylamino)thiazole-5-carboxylic Acid Benzylamide] |
| 175 to 176 | CCC(=O)Nc1nc(C)c(C(=O)NCc2ccccc2)s1 [Example 2.1, 4-Methyl-2-propionylaminothiazole-5-carboxylic Acid Benzylamide] |
| 169 to 172 | Cc1nc(NCc2ccccc2)sc1C(=O)NCc1ccccc1 [Example 8, 2-Benzylamino-4-methylthiazole-5-carboxylic Acid Benzylamide] |
| 198 to 199 | Cc1nc(NC(=O)c2ccccc2)sc1C(=O)NCc1ccccc1C(F)(F)F [Example 7.5, 2-Benzoylamino-4-methylthiazole-5-carboxylic Acid 2-Trifluoromethylbenzylamide] |
| > 300 | Cc1nc(NC(=O)Nc2ccc(F)cc2)sc1C(=O)NCc1ccccc1 [Example 4.1, 2-[3-(4-Fluorophenyl)ureido]-4-methylthiazole-5-carboxylic Acid Benzylamide] |
| 290 to 292 | Cc1nc(NC(=O)c2cc[nH]c(=O)c2)sc1C(=O)NCc1ccccc1 [Example 14, N-Benzyl-4-methyl-2-(2-oxo-1,2-dihydropyridine-4-carboxamido)thiazole-5-carboxamide] |
| 136 to 139 | Cc1nc(NC(=O)CC2CC2)sc1C(=O)NCc1ccccc1 [Example 2.41, 2-(2-Cyclopropylacetylamino)-4-methylthiazole-5-carboxylic Acid Benzylamide] |
| 178 to 179 | Cc1nc(NC(=O)c2cccc(Cl)c2)sc1C(=O)NCc1ccccc1 [Example 2.19, 2-(3-Chlorobenzoylamino)-4-methylthiazole-5-carboxylic Acid Benzylamide] |
| 140 to 141 | Cc1nc(NC(=O)c2ccccc2OC(F)(F)F)sc1C(=O)NCc1ccccc1 [Example 2.21, 4-Methyl-2-(2-trifluoromethoxybenzoylamino)thiazole-5-carboxylic Acid Benzylamide] |
| 162 to 165 | Cc1nc(NC(=O)c2cccc(F)c2)sc1C(=O)NCc1ccccc1 [Example 2.31, 2-(3-Fluorobenzoylamino)-4-methylthiazole-5-carboxylic Acid Benzylamide] |

| melting point [°C] | SMILES |
| --- | --- |
| 95 to 96 | Cc1nc(NC(=O)c2ccc(F)cc2Cl)sc1C(=O)NCc1ccccc1 [Example 2.20, 2-(2-Chloro-4-fluorobenzoylamino)-4-methylthiazole-5-carboxylic Acid Benzylamide] |
| 207 to 208 | Cc1nc(NC(=O)c2cccc(C#N)c2)sc1C(=O)NCc1ccccc1 [Example 2.26, 2-(3-Cyanobenzoylamino)-4-methylthiazole-5-carboxylic Acid Benzylamide] |
| 230 to 232 | Cc1nc(NC(=O)c2cccc(OC(F)(F)F)c2)sc1C(=O)NCc1ccccc1 [Example 2.28, 4-Methyl-2-(3-trifluoromethoxybenzoylamino)thiazole-5-carboxylic Acid Benzylamide] |
| 228 to 231 | Cc1nc(NC(=O)c2ccccc2)sc1C(=O)n1ccnc1 [Example 10, N-(5-(1H-Imidazole-1-carbonyl)-4-methylthiazol-2-yl)benzamide] |
| 63 to 65 | Cc1nc(NC(=O)CCc2ccccc2)sc1C(=O)NCc1ccccc1 [Example 2.40, 4-Methyl-2-(3-phenylpropionylamino)thiazole-5-carboxylic Acid Benzylamide] |
| 198 to 199 | Cc1nc(NC(=O)c2ccccc2)sc1C(=O)NCc1cccc(Cl)c1 [Example 7.1, 2-Benzoylamino-4-methylthiazole-5-carboxylic Acid 3-Chlorobenzylamide] |
| 175 to 178 | Cc1nc(NC(=O)c2cc(Cl)ccc2F)sc1C(=O)NCc1ccccc1 [Example 2.30, 2-(5-Chloro-2-fluorobenzoylamino)-4-methylthiazole-5-carboxylic Acid Benzylamide] |
| 258 to 260 | Cc1nc(NC(=O)c2ccccc2)sc1C(=O)NNC(=O)c1ccccc1 [Example 9, N-(5-(2-Benzoylhydrazinecarbonyl)-4-methylthiazol-2-yl)benzamide] |
| 212 to 214 | Cc1nc(NC(=O)c2ccc(Cl)c(Cl)c2)sc1C(=O)NCc1ccccc1 [Example 2.37, 2-(3,4-Dichlorobenzoylamino)-4-methylthiazole-5-carboxylic Acid Benzylamide] |
| > 300 | Cc1nc(NC(=O)Nc2ccccc2)sc1C(=O)NCc1ccccc1 [Example 4, 4-Methyl-2-(3-phenylureido)thiazole-5-carboxylic Acid Benzylamide] |
| 247 to 249 | O=C(Nc1nc(Cl)c(C(=O)NCc2ccccc2)s1)c1ccccc1 [Example 3.1, 2-Benzoylamino-4-chlorothiazole-5-carboxylic Acid Benzylamide] |
| > 300 | Cc1nc(NC(=O)c2ccc(-c3nn[nH]n3)cc2)sc1C(=O)NCc1ccccc1 [Example 6, 4-Methyl-2-[4-(2H-tetrazol-5-yl)benzoylamino]thiazole-5-carboxylic Acid Benzylamide] |
| 206 to 208 | Cc1nc(NC(=O)c2ccccc2)sc1C(=O)NCc1ccc(F)cc1 [Example 7.6, 2-Benzoylamino-4-methylthiazole-5-carboxylic Acid 4-Fluorobenzylamide] |
| 99 to 101 | Cc1nc(NC(=O)c2cccc3ccccc23)sc1C(=O)NCc1ccccc1 [Example 2.23, 4-Methyl-2-[(naphthalene-1-carbonyl)amino]thiazole-5-carboxylic Acid Benzylamide] |
| 242 to 245 | Cc1ccc(S(=O)(=O)Nc2nc(C)c(C(=O)NCc3ccccc3)s2)cc1 [Example 2.42, 4-Methyl-2-(toluene-4-sulfonylamino)thiazole-5-carboxylic Acid Benzylamide] |
| 171 to 172 | Cc1nc(NC(=O)c2ccncc2)sc1C(=O)NCc1ccccc1 [Example 1, N-(5-Benzylcarbamoyl-4-methylthiazol-2-yl)isonicotinamide] |
| 84 to 86 | Cc1nc(NC(=O)c2cc(F)cc(F)c2)sc1C(=O)NCc1ccccc1 [Example 2.29, 2-(3,5-Difluorobenzoylamino)-4-methylthiazole-5-carboxylic Acid Benzylamide] |
| 188 to 190 | COc1cc(C(=O)Nc2nc(C)c(C(=O)NCc3ccccc3)s2)ccn1 [Example 13, N-Benzyl-2-(2-methoxyisonicotinamido)-4-methylthiazole-5-carboxamide] |
| 180 to 183 | Cc1nc(NC(=O)c2ccccc2)sc1C(=O)NCc1ccccc1F [Example 7.3, 2-Benzoylamino-4-methylthiazole-5-carboxylic Acid 2-Fluorobenzylamide] |
| 203 to 204 | COc1ccc(C(=O)Nc2nc(C)c(C(=O)NCc3ccccc3)s2)cc1 [Example 2.33, 2-(4-Methoxybenzoylamino)-4-methylthiazole-5-carboxylic Acid Benzylamide] |
| 87 to 89 | CCC(NC(=O)c1sc(NC(=O)c2ccccc2)nc1C)c1ccccc1 (stereo not shown) [Example 3, 2-Benzoylamino-4-methylthiazole-5-carboxylic Acid (1-Phenylpropyl)amide] |
